Source: patent publication US5106842A, “Antibiotic C-3 cyclobutenedione substituted (1-carba)cephalosporin compounds, compositions, and methods of use thereof” (Bristol-Myers Squibb Co., priority 1990, dated 1992)
In brackets after ≈: the same amount, converted by molar mass. Read-outs that look alike come from different tables or passages of the source.

Columns and labels:
E. coli A15119 [1] = assay: in vitro MIC vs. E. coli A15119; type: cell-based; settings: Escherichia coli
From the text: Also included in the table is the in vitro MIC's.
(§1) MIC (mcg/ml) i.m. vs E. coli A15119

E. coli A15119 [2] = assay: in vivo therapeutic efficacy after intramuscular administration to mice infected intraperitoneally (PD50); settings: Escherichia coli, A15119, im
Procedure: The in vivo therapeutic efficacy of two representative compounds after intramuscular administration to mice infected intraperitoneally with 0.5 ml of various bacterial suspension is shown in Table I. The values are given in PD50 (dose in mg/kg) to give protection to 50% of the infected mice.
as §1

[3] = read-out: PD50 i.m. vs E. coli A15119, 41 LD50

Row | Compound | MIC (E. coli A15119 [1]) | ED50 (E. coli A15119 [2]; [3]) | ED50 (E. coli A15119 [2]; read-out: PD50 i.m. vs E. coli A15119, 143 LD50) | ED50 (E. coli A15119 [2]; mice, i.m. dosing, infected i.p. with 0.5 ml bacterial suspension, challenge 143 LD50, dose protecting 50% of infected mice, read-out: PD50 i.m. vs E. coli A15119, 143 LD50)
1 | CO/N=C(\C(=O)N[C@@H]1C(=O)N2C(C(=O)O)=C(c3c(N)c(=O)c3=O)CC[C@H]12)c1csc(N)n1 (relative stereo) [Id6] | 0.06 µg/mL (≈ 0.13 µM) | < 0.098 mg/kg | 1.7 mg/kg | –
2 | CO/N=C(\C(=O)N[C@@H]1C(=O)N2C(C(=O)O)=C(c3c(OC(C)C)c(=O)c3=O)CS[C@H]12)c1csc(N)n1 [Id3] | 1 µg/mL (≈ 1.92 µM) | 1.4 mg/kg | – | > 25 mg/kg
